The record followed here is patent US8895547B2, “Substituted phenyl-oxathiazine derivatives, method for producing them, drugs containing said compounds and the use thereof” (Sanofi, priority 2011, dated 2014).

For this experiment, the target named is T1, human 11β-HSD1 (Homo sapiens, UniProt P28845).
T1 construct: host or cells: microsome fraction
Kind of experiment: Enzymatic 11beta-HSD1 test (SPA-based detection). The experiment is classed as biochemical. The settings on record: human 11β-HSD1 microsome fraction, [1,2-3H]-cortisone, NADPH, 37° C. 1 hour. The method, then:
Enzymatic 11beta-HSD1 test:
To measure the activity of the compounds, an SPA-based detection method (Solly et al. 2005) was employed. First of all, 20 μl of the human 11β-HSD1 microsome fraction (0.2 μg of protein), prepared in 50 mM HEPES, 0.1% BSA (w/v), were applied to a plate with 384 wells. The test compounds (0.09 μl) were applied to the assay plate in 100% DMSO. The reaction was started by addition of 20 μl of [1,2-^3H]-cortisone (0.1 μCi/[…]) in assay buffer comprising 25 mM HEPES, 100 mM KCl, 5 mM NaCl, 2 mM MgCl2 and 0.25 mM NADPH. The plate was agitated at 37° C. for 1 hour. At the same time, a stop solution comprising 20 mg/ml SPA-PVT beads, 1.6 mg/ml monoclonal cortisol antibody and 0.01 mM SSR110887 (inhibitor from the Biovitrium patent) in 50 mM HEPES, 1 M NaCl and 1 M KCl was stirred at room temperature. To stop the reaction, 25 μl of the stop solution were added to each well. The plate was agitated gently at room temperature for 1 further hour and then centrifuged at 500 gav for 1 minute, in order that the SPA beads could settle out. The plate was then read in a Wallac-1450-Microbeta unit with a standard SPA program (counting time 1 min/well). The comparative compound was glycyrrhetinic acid.
Protein and radioactive substrate were dispensed with a Biomek FX unit (Beckman Coulter) for handling liquids. The test compounds were added with a Cybi-Well equipped with a 90 nl pin tool (CyBio).
Lit.: Solly S, Mundt S S, Zokian H J, Juy-Fang Ding G, Hermanowski-Vosatka A, Strulovici B and Zheng W. High-throughput screening of 11β-Hydroxysteroid dehydrogenase type 1 in scintillation proximity format. Assay Drug Dev Technol 2005; 3:377-384.

Molecules are shown by their SMILES.

T1 sequence (P28845 whole entry): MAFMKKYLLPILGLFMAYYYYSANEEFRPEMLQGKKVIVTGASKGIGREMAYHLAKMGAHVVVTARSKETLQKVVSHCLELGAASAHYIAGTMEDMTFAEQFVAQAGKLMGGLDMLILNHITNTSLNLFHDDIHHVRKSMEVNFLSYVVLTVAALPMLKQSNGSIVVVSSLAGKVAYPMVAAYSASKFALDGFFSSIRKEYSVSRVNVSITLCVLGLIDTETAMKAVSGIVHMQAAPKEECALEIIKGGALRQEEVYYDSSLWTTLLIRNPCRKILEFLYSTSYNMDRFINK

The compound `CC1(C)OC(N[C@@H](CCO)c2ccccc2F)=NS(=O)(=O)C1c1ccc(-c2ccncc2)cc1` (stereo partly drawn) [Example 119, (S)-3-[6,6-Dimethyl-4,4-dioxo-5-(4-pyridin-4-yl-phenyl)-5,6-dihydro-4H-4lambda6-[1,4,3]oxathiazin-2-ylamino]-3-(2-fluorophenyl)-propan-1-ol] displayed an IC50 of 0.006 µM. Then `CC1(C)OC(N[C@@H](CCO)c2ccccc2)=NS(=O)(=O)C1c1ccccc1` (stereo partly drawn) [Example 2, (S)-3-(6,6-Dimethyl-4,4-dioxo-5-phenyl-5,6-dihydro-4H-4lambda6-[1,4,3]oxathiazin-2-ylamino)-3-phenyl-propan-1-ol], with 0.017 µM. For `CC1(C)OC(NC(CCO)c2cccc(F)c2F)=NS(=O)(=O)C1c1ccc(-c2ccccc2)cc1` (centres unmarked) [Example 82, 3-(5-Biphenyl-4-yl-6,6-dimethyl-4,4-dioxo-5,6-dihydro-4H-4lambda6-[1,4,3]oxathiazin-2-ylamino)-3-(2,3-difluorophenyl)-propan-1-ol] the value was 0.023 µM; for `CN1CCN(CCc2ccc(C3C(C)(C)OC(N[C@@H](CCO)c4ccccc4F)=NS3(=O)=O)cc2)CC1` (stereo partly drawn) [Example 148, (S)-3-(6,6-Dimethyl-5-{4-[2-(4-methyl-piperazin-1-yl)-ethyl]-phenyl}-4,4-dioxo-5,6-dihydro-4H-4lambda6-[1,4,3]oxathiazin-2-ylamino)-3-(2-fluoro-phenyl)-propan-1-ol], 0.144 µM.

`C[C@H](NC1=NS(=O)(=O)C(c2cccnc2)C(C)(C)O1)c1ccccc1F` (stereo partly drawn) [Example 168, (6,6-Dimethyl-4,4-dioxo-5-pyridin-3-yl-5,6-dihydro-4H-4lambda6-[1,4,3]oxathiazin-2-yl)-[(S)-1-(2-fluorophenyl)-ethyl]-amine]: the 50% inhibitory concentration (IC50) worked out at 0.021 µM. In the case of `CC1(C)OC(N[C@@H](CCO)c2ccccc2F)=NS(=O)(=O)C1(C)c1cccc(-c2cncnc2)c1` (stereo partly drawn) [Example 46, (S)-3-(2-Fluorophenyl)-3-[5,6,6-trimethyl-4,4-dioxo-5-(3-pyrimidin-5-yl-phenyl)-5,6-dihydro-4H-4lambda6-[1,4,3]oxathiazin-2-ylamino]-propan-1-ol], inhibition was half-maximal at 0.018 µM (IC50). For `CC1(C)OC(N[C@@H](CCO)c2ccccc2F)=NS(=O)(=O)C1(C)c1cccc(N2CCCC2)c1` (stereo partly drawn) [Compound 45, (S)-3-(2-Fluorophenyl)-3-[5,6,6-trimethyl-4,4-dioxo-5-(3-pyrrolidin-1-ylphenyl)-5,6-dihydro-4H-4lambda6-[1,4,3]oxathiazin-2-ylamino]propan-1-ol] the value was 0.011 µM; for `CC1(C)OC(N[C@@H](CCO)c2ccccc2F)=NS(=O)(=O)C1c1ccc(Nc2ncccn2)cc1` (stereo partly drawn) [Example 130, (S)-3-{6,6-Dimethyl-4,4-dioxo-5-[4-(pyrimidin-2-ylamino)-phenyl]-5,6-dihydro-4H-4lambda6-[1,4,3]oxathiazin-2-ylamino}-3-(2-fluorophenyl)-propan-1-ol], 0.02 µM. Turning to `CC1(C)OC(N[C@@H](CCO)c2ccccc2F)=NS(=O)(=O)C1c1ccc(-c2ccccn2)cc1` (stereo partly drawn) [Example 134, (S)-3-[6,6-Dimethyl-4,4-dioxo-5-(4-pyridin-2-yl-phenyl)-5,6-dihydro-4H-4lambda6-[1,4,3]oxathiazin-2-ylamino]-3-(2-fluorophenyl)-propan-1-ol], 0.011 µM corresponded to half-maximal inhibition (IC50). For `CC1(C)OC(N[C@@H](CCO)c2ccccc2F)=NS(=O)(=O)C1c1ccc(N2C(=O)c3ccccc3C2=O)cc1` (stereo partly drawn) [Example 141, 2-(4-{2-[(S)-1-(2-fluorophenyl)-3-hydroxy-propylamino]-6,6-dimethyl-4,4-dioxo-5,6-dihydro-4H-4lambda6-[1,4,3]oxathiazin-5-yl}-phenyl)-isoindole-1,3-dione] the value was 0.014 µM.

On to `C[C@H](NC1=NS(=O)(=O)C(c2ccc(-c3cnc(N4CCNCC4)nc3)cc2)C(C)(C)O1)c1ccccc1F` (stereo partly drawn) [Example 166, {6,6-Dimethyl-4,4-dioxo-5-[4-(2-piperazin-1-yl-pyrimidin-5-yl)-phenyl]-5,6-dihydro-4H-4lambda6-[1,4,3]oxathiazin-2-yl}-[(S)-1-(2-fluorophenyl)-ethyl]-amine], for which the IC50 is 0.004 µM. For `CC1(C)OC(N[C@@H](CCO)c2ccccc2F)=NS(=O)(=O)C1c1ccc(-c2ccc(Cl)s2)cc1` (stereo partly drawn) [Example 91, (S)-3-{5-[4-(5-Chlorothiophen-2-yl)-phenyl]-6,6-dimethyl-4,4-dioxo-5,6-dihydro-4H-4lambda6-[1,4,3]oxathiazin-2-ylamino}-3-(2-fluorophenyl)-propan-1-ol] the value was 0.011 µM.

For `CC1(C)OC(N[C@@H](CCO)c2ccccc2)=NS(=O)(=O)C1c1cccc(Cc2ccccc2)c1` (stereo partly drawn) [Example 10, (S)-3-[5-(3-Benzyl-phenyl)-6,6-dimethyl-4,4-dioxo-5,6-dihydro-4H-4lambda6-[1,4,3]oxathiazin-2-ylamino]-3-phenyl-propan-1-ol], the IC50 came out at 0.015 µM.

Consider `CN(C)CCCc1ccc(C2C(C)(C)OC(N[C@@H](CCO)c3ccccc3F)=NS2(=O)=O)cc1` (stereo partly drawn) [Example 108, (S)-3-{5-[4-(3-Dimethylamino-propyl)-phenyl]-6,6-dimethyl-4,4-dioxo-5,6-dihydro-4H-4lambda6-[1,4,3]oxathiazin-2-ylamino}-3-(2-fluorophenyl)-propan-1-ol], for which the IC50 was found to be 0.042 µM. Consider `C[C@H](NC1=NS(=O)(=O)C(c2ccc(-c3cccc(C(N)=O)c3)nc2)C(C)(C)O1)c1ccccc1F` (stereo partly drawn) [Example 176, 3-(5-{2-[(S)-1-(2-fluor-phenyl)-ethylamino]-6,6-odimethyl-4,4-dioxo-5,6-dihydro-4H-4lambda6-[1,4,3]oxathiazin-5-yl}-pyridin-2-yl)-benzamide], for which the IC50 came to 0.006 µM. Then `CC1(C)OC(N[C@@H](CCO)c2ccccc2F)=NS(=O)(=O)C1c1ccc(-c2ccnc(C#N)c2)cc1` (some centres unmarked) [Example 127], with 0.006 µM; and `C[C@H](NC1=NS(=O)(=O)C(c2ccc(C3CCN(C(C)(C)C)CC3)cc2)C(C)(C)O1)c1ccccc1F` (stereo partly drawn) [Example 171, {5-[4-(1-tert-Butyl-piperidin-4-yl)-phenyl]-6,6-dimethyl-4,4-dioxo-5,6-dihydro-4H-4lambda6-[1,4,3]oxathiazin-2-yl}-[(S)-1-(2-fluorophenyl)-ethyl]-amine], with 0.108 µM. Then `CC1(C)OC(N[C@@H](CCO)c2ccc(Cl)cc2)=NS(=O)(=O)C1c1ccc(-c2ccccc2)cc1` (stereo partly drawn) [Example 88, (S)-3-(5-Biphenyl-4-yl-6,6-dimethyl-4,4-dioxo-5,6-dihydro-4H-4lambda6-[1,4,3]oxathiazin-2-ylamino)-3-(4-chloro-phenyl)-propan-1-ol], with 0.198 µM; and `O=S1(=O)N=C(N[C@@H](CCO)c2ccccc2F)OC2(CCC2)C1c1ccc(-c2ccccc2)cc1` (stereo partly drawn) [Example 77, (S)-3-(9-Biphenyl-4-yl-8,8-dioxo-5-oxa-8lambda6-thia-7-aza-spiro[3.5]non-6-en-6-ylamino)-3-(2-fluorophenyl)-propan-1-ol], with 0.026 µM; and `C[C@H](NC1=NS(=O)(=O)C(c2ccc(-c3cccc(C(N)=O)c3)nc2)C(C)(C)O1)c1ccccc1F` (stereo partly drawn) [Example 181, 3-(5-{2-[(S)-1-(2-fluorophenyl)-ethylamino]-6,6-dimethyl-4,4-dioxo-5,6-dihydro-4H-4lambda6-[1,4,3]oxathiazin-5-yl}-pyridin-2-yl)-benzamide], with 0.007 µM.
